Reference: patent US6653300B2, “Pyrazole compounds useful as protein kinase inhibitors” (Vertex Pharmaceuticals Incorporated, priority 2000, dated 2003)

How the values were obtained:
Aurora-2 = target: T1, Aurora-2 (Homo sapiens, UniProt O14965); assay: Ki determination for the inhibition of Aurora-2 (coupled enzyme assay); type: biochemical; conditions: 70 nM Aurora-2, 30° C.
T1 sequence (O14965 1-403): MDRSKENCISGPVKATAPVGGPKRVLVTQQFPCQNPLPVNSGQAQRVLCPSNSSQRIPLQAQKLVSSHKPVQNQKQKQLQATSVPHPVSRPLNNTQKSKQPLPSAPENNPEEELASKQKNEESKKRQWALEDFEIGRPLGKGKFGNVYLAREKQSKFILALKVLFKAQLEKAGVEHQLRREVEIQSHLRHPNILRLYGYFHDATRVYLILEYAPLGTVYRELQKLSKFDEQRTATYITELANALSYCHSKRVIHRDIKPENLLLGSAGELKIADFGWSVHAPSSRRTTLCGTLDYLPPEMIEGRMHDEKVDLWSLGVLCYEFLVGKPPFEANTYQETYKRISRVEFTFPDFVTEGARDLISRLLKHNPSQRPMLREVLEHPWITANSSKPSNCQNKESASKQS
Summary of the method: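 Ki came from reaction rates plotted against inhibitor concentration, with rates taken as A340 decrease over 5 min at 30° C. Enzyme (70 nM final) was added after 10 min compound preincubation; stock buffer held […], 800 μM LRRASLG, PK/LDH coupling, pH 7.5.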

CDK-2/Cyclin A = CDK-2/Cyclin A (Homo sapiens, UniProt P24941); assay: CDK-2 inhibition assay (coupled enzyme assay); type: biochemical; conditions: 25 nM CDK-2/Cyclin A, 30° C.
Experimental: Compounds were screened in the following manner for their ability to inhibit CDK-2 using a standard coupled enzyme assay (Fox et al (1998) Protein Sci 7, 2249).
To an assay stock buffer solution containing 0.1M HEPES 7.5, 10 mM MgCl2, 1 mM DTT, 25 mM NaCl, 2.5 mM phosphoenolpyruvate, […], 30 mg/ml pyruvate kinase, 10 mg/ml lactate dehydrogenase, 100 mM ATP, and 100 μM peptide ([…], American Peptide, Sunnyvale, Calif.) was added a DMSO solution of a compound of the present invention to a final concentration of 30 μM. The resulting mixture was incubated at 30° C. for 10 min.
The reaction was initiated by the addition of 10 μL of CDK-2/Cyclin A stock solution to give a final concentration of 25 nM in the assay. The rates of reaction were obtained by monitoring absorbance at 340 nm over a 5-minute read time at 30° C. using a BioRad Ultramark plate reader (Hercules, Calif.). The Ki values were determined from the rate data as a function of inhibitor concentration.

activated ERK2 = activated ERK2 (Homo sapiens, UniProt P28482); assay: ERK inhibition assay (spectrophotometric coupled-enzyme assay); type: biochemical; conditions: 10 nM activated ERK2, 65 μM ATP, 30° C.; read-out: Ki values for ERK-2
Experimental: Compounds were assayed for the inhibition of ERK2 by a spectrophotometric coupled-enzyme assay (Fox et al (1998) Protein Sci 7, 2249).

GSK-3β (AA 1-420) = target: T2, GSK-3β (AA 1-420) (Homo sapiens, UniProt P49841); assay: Ki determination for the inhibition of GSK-3 (coupled enzyme system); type: biochemical; conditions: 20 μM ATP, 20 nM GSK-3β, 30° C.
T2 construct: GSK-3β (AA 1-420)
Summary of the method: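 GSK-3β (AA 1-420, 20 nM) was run in a pyruvate kinase/LDH-coupled NADH assay in 100 mM HEPES pH 7.5, 10 mM MgCl2, 25 mM NaCl, 1 mM DTT, 1.5% DMSO, with 300 μM phosphopeptide substrate. Compound (0.002–30 μM) was preincubated 10 min at 30° C, then 20 μM ATP was added.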

AKT-3 = AKT-3 (Homo sapiens, UniProt Q9Y243); assay: AKT inhibition assay (coupled enzyme assay); type: biochemical; conditions: 45 nM AKT, 170 μM ATP, 30° C.
Experimental: Compounds were screened for their ability to inhibit AKT using a standard coupled enzyme assay (Fox et al., Protein Sci., (1998) 7, 2249). Assays were carried out in a mixture of 100 mM HEPES 7.5, 10 mM MgCl2, 25 mM NaCl, 1 mM DTT and 1.5% DMSO. Final substrate concentrations in the assay were 170 μM ATP (Sigma Chemicals) and 200 μM peptide (RPRAATF, American Peptide, Sunnyvale, Calif.). Assays were carried out at 30° C. and 45 nM AKT. Final concentrations of the components of the coupled enzyme system were 2.5 mM phosphoenolpyruvate, 300 μM NADH, 30 μg/ML pyruvate kinase and 10 μg/ml lactate dehydrogenase.
An assay stock buffer solution was prepared containing all of the reagents listed above, with the exception of AKT, DTT, and the test compound of interest. 56 μl of the stock solution was placed in a 384 well plate followed by addition of 1 μl of 2 mM DMSO stock containing the test compound (final compound concentration 30 μM). The plate was preincubated for about 10 minutes at 30° C. and the reaction initiated by addition of 10 μl of enzyme (final concentration 45 nM) and 1 mM DTT. Rates of reaction were obtained using a BioRad Ultramark plate reader (Hercules, Calif.) over a 5 minute read time at 30° C.

activated ERK2, sequence (P28482 whole entry): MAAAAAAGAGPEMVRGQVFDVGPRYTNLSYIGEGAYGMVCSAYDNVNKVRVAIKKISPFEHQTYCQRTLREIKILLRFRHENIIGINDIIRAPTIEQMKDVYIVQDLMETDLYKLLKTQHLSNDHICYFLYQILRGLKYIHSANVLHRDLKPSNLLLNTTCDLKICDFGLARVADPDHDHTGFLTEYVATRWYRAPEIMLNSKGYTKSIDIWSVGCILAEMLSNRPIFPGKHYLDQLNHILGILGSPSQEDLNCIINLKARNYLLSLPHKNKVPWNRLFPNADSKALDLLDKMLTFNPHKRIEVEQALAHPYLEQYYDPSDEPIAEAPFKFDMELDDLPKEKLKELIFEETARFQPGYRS
T2 sequence (P49841 whole entry, the tested form may be a part): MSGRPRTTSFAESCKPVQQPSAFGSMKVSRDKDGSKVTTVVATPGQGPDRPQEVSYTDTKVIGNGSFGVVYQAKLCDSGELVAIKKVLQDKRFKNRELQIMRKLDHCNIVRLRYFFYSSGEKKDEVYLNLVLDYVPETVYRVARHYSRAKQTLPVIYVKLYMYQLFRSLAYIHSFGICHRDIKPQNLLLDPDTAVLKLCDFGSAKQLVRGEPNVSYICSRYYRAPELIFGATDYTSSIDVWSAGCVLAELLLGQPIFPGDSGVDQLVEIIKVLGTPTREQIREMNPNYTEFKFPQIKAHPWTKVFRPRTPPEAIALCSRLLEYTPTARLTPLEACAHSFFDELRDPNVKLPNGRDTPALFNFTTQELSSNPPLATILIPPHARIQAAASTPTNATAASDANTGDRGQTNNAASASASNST
AKT-3, sequence (Q9Y243 whole entry, species assumed): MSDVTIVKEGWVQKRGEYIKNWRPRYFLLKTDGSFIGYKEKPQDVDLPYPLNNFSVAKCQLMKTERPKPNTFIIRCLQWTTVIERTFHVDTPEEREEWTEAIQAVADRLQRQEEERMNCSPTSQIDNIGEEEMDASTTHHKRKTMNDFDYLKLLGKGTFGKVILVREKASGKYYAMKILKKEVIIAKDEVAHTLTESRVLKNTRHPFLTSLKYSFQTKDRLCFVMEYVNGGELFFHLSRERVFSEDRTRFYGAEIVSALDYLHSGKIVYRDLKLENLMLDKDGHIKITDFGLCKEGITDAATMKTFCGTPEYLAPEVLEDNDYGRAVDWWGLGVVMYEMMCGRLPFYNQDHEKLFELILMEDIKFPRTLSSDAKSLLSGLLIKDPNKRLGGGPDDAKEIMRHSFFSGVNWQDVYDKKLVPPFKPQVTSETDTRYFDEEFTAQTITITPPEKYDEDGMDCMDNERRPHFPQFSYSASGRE

| Ki (Aurora-2) [nM] | Ki (CDK-2/Cyclin A) [nM] | Ki (activated ERK2) [nM] | Ki (GSK-3β (AA 1-420)) [nM] | Ki (AKT-3) [nM] | melting point [°C] | Compound |
| --- | --- | --- | --- | --- | --- | --- |
| < 100 | < 1000 | 1000 to 20000 | < 100 | 1000 to 20000 | 250 to 251 | CCc1ccc(Nc2nc(Nc3cc(C4CC4)[nH]n3)c3ccccc3n2)cc1 [IIc-25, (5-Cyclopropyl-2H-pyrazol-3-yl)-[2-(4-ethylphenylamino)-quinazolin-4-yl]-amine] |
| < 100 | < 1000 | < 1000 | < 100 | 1000 to 20000 | 255 to 256 | OCCc1ccc(Nc2nc(Nc3cc(C4CC4)[nH]n3)c3ccccc3n2)cc1 [IIc-27, (5-Cyclopropyl-2H-pyrazol-3-yl)-{2-[4-(2-hydroxyethyl)phenylamino]-quinazolin-4-yl}-amine] |
